# From BindingDB's records for doi:10.1016/s0960-894x(02)00382-7 (Novartis Pharma, 2002)
# Target: Substance-P receptor (Bos taurus)
# Assay: inhibition of [3H]Sar-SP binding to Tachykinin receptor 1 of bovine retina membranes
row,IC50 [nM],SMILES
1,2.7,CN(C(=O)c1cc(C(F)(F)F)cc(C(F)(F)F)c1)c1cc(C(=O)N[C@@H]2CCCCNC2=O)ccc1-c1ccc(Cl)cc1
2,13,COc1cc(C(=O)N(C)c2cc(C(=O)N[C@@H]3CCCCNC3=O)ccc2-c2ccc(Cl)cc2)cc(OC)c1OC
3,1,CN(C(=O)c1cc(C(F)(F)F)cc(C(F)(F)F)c1)c1cc(C(=O)N[C@@H]2CCCCNC2=O)ccc1-c1ccc(F)cc1
4,6,Cc1ccc(-c2ccc(C(=O)N[C@@H]3CCCCNC3=O)cc2N(C)C(=O)c2cc(C(F)(F)F)cc(C(F)(F)F)c2)cc1
5,0.8,CN(C(=O)c1cc(C(F)(F)F)cc(C(F)(F)F)c1)c1cc(C(=O)N[C@@H]2CCCCNC2=O)ccc1-c1ccc(Cl)c(Cl)c1
6,1,"CN(C)CCCNC(=O)c1ccc(-c2ccc(Cl)cc2)c(N(C)C(=O)c2cc(C(F)(F)F)cc(C(F)(F)F)c2)c1 [2-[(3,5-Bis-trifluoromethyl-benzoyl)-methyl-amino]-4'-chloro-biphenyl-4-carboxylic acid (3-dimethylamino-propyl)-amide]"
7,4,"CN(C)C(=O)c1ccc(-c2ccc(Cl)cc2)c(N(C)C(=O)c2cc(C(F)(F)F)cc(C(F)(F)F)c2)c1 [2-[(3,5-Bis-trifluoromethyl-benzoyl)-methyl-amino]-4'-chloro-biphenyl-4-carboxylic acid dimethylamide]"
8,34,"CN(C(=O)c1cc(C(F)(F)F)cc(C(F)(F)F)c1)c1cc(C(=O)NC2CCCCC2)ccc1-c1ccc(F)cc1 [2-[(3,5-Bis-trifluoromethyl-benzoyl)-methyl-amino]-4'-fluoro-biphenyl-4-carboxylic acid cyclohexylamide]"
9,0.7,"COc1cc(C(=O)Nc2cc(C(=O)NC3CCCCNC3=O)ccc2-c2ccc(Cl)cc2)cc(OC)c1OC (centres undefined) [4'-Chloro-2-(3,4,5-trimethoxy-benzoylamino)-biphenyl-4-carboxylic acid (2-oxo-azepan-3-yl)-amide]"
